Measurements: patent publication US20100221769A1, “ELECTROPORATIVE FLOW CYTOMETRY” (priority 2007, published 2010)

Tests used:
MCF-7 cells [1] = assay: EFC cell swelling during flow-through electroporation; format: cell-based, human
Method: Cell culture. MCF-7 and MCF-10A cell lines were obtained from American Type Culture Collection (ATCC, Manassas, Va.) and cultured according to recommended protocols. Briefly, MCF-10A cell line was cultured in DMEM F-12 supplemented with Horse Serum (5.6%), EGF (20 ng/ml), Insulin (10 μg/ml), antibiotics (1%) and Hydrocortisone (0.5 μg/ml). The MCF-7 cell line was cultured in DMEM supplemented with FBS (10%), Penicillin/streptomycin (1%) and L-glutamine (2 mM). The TPA treated MCF-7 cell line was generated by treating MCF-7 cells with 100 nM 12-O-tetradecanoylphorbol-13-acetate (TPA) for 18 hr before experiments. In order to detach cells from culture flasks, cells were treated with 0.1% Trypsin/EDTA, washed and resuspended using the electroporation buffer (10 mM Na2HPO4, […], and 250 mM sucrose). For the treatment of MCF-7 cells with colchicine, MCF-7 cells were incubated in the culture medium consisting of 10 μM colchicine (Sigma, St Louis, USA) for 30 min (Rots and Teissie, 1992, Biochim. Biophys. Acta 1111: 45-50). The cell suspension was then centrifuged and the supernatant was discarded. The cells were washed with the electroporation buffer and then resuspended in the electroporation buffer for testing. […]
Microchip operation and data collection/analysis. The microfluidic chip (shown in FIG. 10) was mounted on an IX-71 fluorescence microscope (Olympus, Melville, N.Y.) equipped with a 40× dry objective (NA=0.40) and an ORCA-285 CCD camera (Hamamatsu, Bridgewater, N.J.). […] However, because the cell size is monitored over time, the results should not be affected by the velocity, assuming mechanical effects such as shear stress can be ignored. […] In this case, the duration of electroporation was determined by the flow rate and the dimensions of the microfluidic channel. […]
For EFC tests, the images of cells were taken at a frame rate of 16 Hz. The cell size was monitored over time during electroporation by measuring the two-dimensional area (μm^2) of individual cells in time-sequenced images using ImageJ software from NIH. […]

MCF-7 cells [2] = assay: Cell viability (PI staining) after flow-through electroporation; format: cell-based, human; conditions: 0 and 200 V/cm, 200 ms, 1 hr after electroporation
MCF-7 cells [3] = conditions: 100 nM for 18 hr (Johnson et al., 1999); cited from earlier work

Compound | average cell size, % of original size (MCF-7 cells [1]; 400 V/cm, 192 ms, 100 nM for 18 hr, untreated MCF-7 148%) [%] | average percentile cell size from normal distribution fit of histogram (MCF-7 cells [1]; 400 V/cm, 192 ms, about 100 cells, untreated MCF-7 150%) [%] | survival compared with MCF-10A and untreated MCF-7 (MCF-7 cells [2]) | increase in invasiveness and metastatic potential (MCF-7 cells [3]) [fold] | effect on cell deformability (swelling during electroporation vs control) (MCF-7 cells [1]; 10 μM for 30 min)
CCCCCCCCCCCCCC(=O)O[C@@H]1[C@@H](C)[C@@]2(O)[C@@H](C=C(CO)C[C@]3(O)C(=O)C(C)=C[C@@H]23)[C@@H]2C(C)(C)[C@]12OC(C)=O [TPA, 12-O-tetradecanoylphorbol-13-acetate] | 170 | 170 | better survival rate | 18 | –
COc1cc2c(c(OC)c1OC)-c1ccc(OC)c(=O)cc1[C@@H](NC(C)=O)CC2 [colchicine] | – | – | – | – | cell stiffening
